Patent publication US8173843B2, “Amphiphilic derivatives of α-C-phenyl-N-tert-butylnitrone” (TS Pharma, priority 2006, dated 2012)

Legend:
[1] = oxidative aging tests; Poeggeler et al. 2005; cited from earlier work
[2] = test system: Sprague-Dawley rat embryo cortex cell cultures; experiment: Hydrogen peroxide-induced apoptotic cell death, viability of cortex cell cultures; assay type: cell-based; details: compound at 10 μM; hydrogen peroxide 50 to 200 μM; preliminary results
Experimental: (§1) The biological tests were carried out according to the procedures described in Journal of Neurochemistry, 2005, 95, 962-973. In order to evaluate the potentialities of these novel derivatives, we measured the ability of compound 10 to reduce and prevent apoptotic cell death phenomena. Hydrogen peroxide is very widely used as an apoptosis inducer in many cell models. Thus, the viability of Sprague-Dawley rat embryo cortex cell cultures is greatly impaired after treatment with hydrogen peroxide at concentrations of 50 to 200 μM. […] These same cultures were also subjected to a mitochondria-selective oxidative stress inducer, doxorubicin (Kotamraju S.; Konorev E. A.; Joseph J.; Kalyanaraman B. J. Biol. Chem. 2000, 275, 33 585-33 592). The observations are the same as for the induction with hydrogen peroxide. […] These preliminary results underline the great ability of compound 10 to prevent apoptosis phenomena induced at varying cell levels. […] A dysfunction of the mitochondrion, the central organelle in the control of apoptosis is involved in a very wide variety of pathological conditions. The anti-apoptotic properties of derivative 10 combined with its incorporation into the mitochondrion make it possible to envision its use in the fields mentioned above.

[3] = test system: Sprague-Dawley rat embryo cortex cell cultures; experiment: Doxorubicin (mitochondria-selective oxidative stress inducer)-induced cell death, viability of cortex cell cultures; assay type: cell-based; details: doxorubicin-induced mitochondrial oxidative stress; preliminary results
Experimental: as §1

gerbils = details: after injection in gerbils; Oliver et al. 1990; cited from earlier work
[4] = literature; cited from earlier work

| SMILES | biological activity compared with PBN [1] | restoration of viability of cultures after hydrogen peroxide treatment [2] | protection against cell death / cell viability under doxorubicin [3] | damage caused by cerebral ischemia (gerbils) | neuroprotective activity compared with PBN [4] |
| --- | --- | --- | --- | --- | --- |
| CCCCCCCC(=O)NCC(C)(C)[N+]([O-])=Cc1ccc(CNC(=O)[C@H](OC(C)=O)[C@@H](OC(C)=O)[C@H](O[C@@H]2O[C@H](COC(C)=O)[C@H](OC(C)=O)[C@H](OC(C)=O)[C@H]2OC(C)=O)[C@@H](COC(C)=O)OC(C)=O)cc1 [LPBNAH, N-[4-(octa-O-acetyllactobionamidomethylene)benzylidene]-N-[1,1-dimethyl-2-(N-octanoyl)amido]ethylamine N-oxide] | biological activity greater than that of PBN | – | – | – | – |
| CC(C)(C)[N+]([O-])=Cc1ccccc1 [PBN, α-C-phenyl-N-tert-butylnitrone] | – | very incompletely restore the viability | only a partial protection against cell death | decrease in the damage caused by cerebral ischemia | – |
| CC(C)(C)[N+]([O-])=Cc1ccc(S(=O)(=O)[O-])cc1S(=O)(=O)[O-].[Na+].[Na+] [NXY-059] | – | – | – | – | neuroprotective activity greater than PBN |
| CCCCCCCC(=O)NCc1ccc(/C=[N+](\[O-])C(C)(C)CNC(=O)C(O)[C@H](O)[C@H](O[C@@H]2OC(CO)[C@H](O)C(O)C2O)C(O)CO)cc1 (stereo partly shown) [Compound 10] | – | completely restore the viability | allows the cell viability to be completely maintained | – | – |
